Measurements published in patent publication US20040034040A1, “Use of thienopyrimidines” (priority 2000, published 2004).
Structures can show the parent of a compound that is named as a salt.

Question: For `COc1ccc(CNc2nc(CCC(=O)O)nc3sc4c(c23)CCCC4)cc1Cl` (as salt: salt) [Example 2, 3-[4-(3-chloro-4-methoxybenzylamino)-5,6,7,8-tetrahydro-[1]-benzothieno-[2,3-d]-pyrimidin-2-yl]propionic acid], which melting point is on record?
Answer: 229 °C
